We go through one compound from patent US20260216207A1, “7-CARBONYLSTAUROSPORINE DERIVATIVE, PREPARATION METHOD THEREFOR, AND USE THEREOF” (HANGZHOU KEXING BIOCHEM. CO., LTD., priority 2023, published 2026).

The structures appear in SMILES notation. Entries after “also recorded” stand apart in the source; their conditions may differ.

What all share (format): biochemical
One test addresses T1, IKKβ (Homo sapiens, UniProt O14920).
T1 sequence (O14920 1-756): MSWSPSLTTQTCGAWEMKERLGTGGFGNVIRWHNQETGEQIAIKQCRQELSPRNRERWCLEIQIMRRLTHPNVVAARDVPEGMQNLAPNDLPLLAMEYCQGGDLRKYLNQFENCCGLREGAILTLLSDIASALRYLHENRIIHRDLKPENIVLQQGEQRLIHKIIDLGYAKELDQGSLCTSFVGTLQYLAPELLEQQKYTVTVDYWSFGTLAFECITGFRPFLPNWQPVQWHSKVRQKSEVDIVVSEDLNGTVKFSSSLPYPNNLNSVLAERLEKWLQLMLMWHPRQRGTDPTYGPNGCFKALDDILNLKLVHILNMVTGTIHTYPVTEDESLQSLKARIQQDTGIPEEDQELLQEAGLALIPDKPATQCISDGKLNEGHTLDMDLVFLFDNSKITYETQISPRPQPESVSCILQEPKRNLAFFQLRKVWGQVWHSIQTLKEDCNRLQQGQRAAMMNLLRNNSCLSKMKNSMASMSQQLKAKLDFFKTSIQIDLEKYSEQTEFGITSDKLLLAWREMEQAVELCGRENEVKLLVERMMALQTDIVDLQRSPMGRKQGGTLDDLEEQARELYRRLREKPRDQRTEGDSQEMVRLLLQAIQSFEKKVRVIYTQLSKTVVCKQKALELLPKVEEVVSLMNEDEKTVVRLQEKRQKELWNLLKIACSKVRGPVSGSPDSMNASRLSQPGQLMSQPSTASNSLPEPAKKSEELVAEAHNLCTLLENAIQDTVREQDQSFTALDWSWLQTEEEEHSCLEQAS
The test is described as follows: HTRF KinEASE kinase assay, IKKβ (kinase selectivity). The conditions noted are these: HTRF KinEASE kit, 3 duplicate wells; read-out: IKKβ IC50. On the procedure:
(§1) Inhibitory activities against PIM-1, TRKA, TRKB, FLT3, PKCδ, PKCε, PKCη, PAK4, PLK1, ROCK2, and IKKβ kinases were all determined using an HTRF®KinEASE™ kinase assay kit based on a time-resolved fluorescence technology. 7-carbonylstaurosporine (7OSTA) and TP-3654 were used as positive controls, and 3 duplicate wells were set in parallel. […] A signal ratio was calculated as F2/F1×10000, and then an IC50 value was calculated using Graphpad Prism 8 software.
A general note: In TR-FRET formats the signal depends on donor and acceptor labels being close together.

A further test concerns the target PKCη (Homo sapiens, UniProt P24723). Briefly: HTRF KinEASE kinase assay, PKCη (kinase selectivity). The conditions noted are these: HTRF KinEASE kit, 3 duplicate wells; read-out: PKCη IC50. On the procedure: as §1
A further test addresses T2, FLT3 (Homo sapiens, UniProt P36888).
T2 sequence (P36888 27-993): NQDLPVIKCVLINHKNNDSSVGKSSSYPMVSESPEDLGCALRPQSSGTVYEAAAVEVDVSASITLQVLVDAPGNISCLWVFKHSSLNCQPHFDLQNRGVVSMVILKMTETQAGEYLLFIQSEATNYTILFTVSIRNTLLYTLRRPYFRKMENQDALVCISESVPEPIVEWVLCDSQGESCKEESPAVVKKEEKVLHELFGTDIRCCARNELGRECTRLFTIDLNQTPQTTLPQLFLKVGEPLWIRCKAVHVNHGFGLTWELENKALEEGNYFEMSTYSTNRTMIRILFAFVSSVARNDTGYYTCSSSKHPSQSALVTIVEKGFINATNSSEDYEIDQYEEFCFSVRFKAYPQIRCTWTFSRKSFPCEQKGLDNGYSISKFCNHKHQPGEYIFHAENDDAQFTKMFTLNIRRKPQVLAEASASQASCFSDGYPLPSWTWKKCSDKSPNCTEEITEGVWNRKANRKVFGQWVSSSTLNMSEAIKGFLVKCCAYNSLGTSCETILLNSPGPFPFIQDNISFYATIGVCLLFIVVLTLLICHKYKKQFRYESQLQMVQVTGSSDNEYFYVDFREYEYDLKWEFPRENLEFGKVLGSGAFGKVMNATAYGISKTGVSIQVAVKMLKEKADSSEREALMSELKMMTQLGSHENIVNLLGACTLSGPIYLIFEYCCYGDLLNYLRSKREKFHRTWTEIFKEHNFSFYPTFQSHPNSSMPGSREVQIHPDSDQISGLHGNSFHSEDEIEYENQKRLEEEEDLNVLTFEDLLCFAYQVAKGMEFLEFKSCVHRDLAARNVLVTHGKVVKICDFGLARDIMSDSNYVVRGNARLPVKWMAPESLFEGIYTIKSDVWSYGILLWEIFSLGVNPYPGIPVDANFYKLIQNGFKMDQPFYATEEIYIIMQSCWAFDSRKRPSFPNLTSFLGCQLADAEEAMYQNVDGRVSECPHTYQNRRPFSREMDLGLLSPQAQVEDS
Briefly: HTRF KinEASE kinase assay, FLT3 (kinase selectivity). The conditions noted are these: HTRF KinEASE kit, 3 duplicate wells; read-out: FLT3 IC50. How it is done:
as §1

For a further test, the target named is ROCK2 (Homo sapiens, UniProt O75116). Briefly: HTRF KinEASE kinase assay, ROCK2 (kinase selectivity). The conditions noted are these: HTRF KinEASE kit, 3 duplicate wells; read-out: ROCK2 IC50. How it is done: as §1
Chain of ROCK2 (O75116 whole entry, species assumed): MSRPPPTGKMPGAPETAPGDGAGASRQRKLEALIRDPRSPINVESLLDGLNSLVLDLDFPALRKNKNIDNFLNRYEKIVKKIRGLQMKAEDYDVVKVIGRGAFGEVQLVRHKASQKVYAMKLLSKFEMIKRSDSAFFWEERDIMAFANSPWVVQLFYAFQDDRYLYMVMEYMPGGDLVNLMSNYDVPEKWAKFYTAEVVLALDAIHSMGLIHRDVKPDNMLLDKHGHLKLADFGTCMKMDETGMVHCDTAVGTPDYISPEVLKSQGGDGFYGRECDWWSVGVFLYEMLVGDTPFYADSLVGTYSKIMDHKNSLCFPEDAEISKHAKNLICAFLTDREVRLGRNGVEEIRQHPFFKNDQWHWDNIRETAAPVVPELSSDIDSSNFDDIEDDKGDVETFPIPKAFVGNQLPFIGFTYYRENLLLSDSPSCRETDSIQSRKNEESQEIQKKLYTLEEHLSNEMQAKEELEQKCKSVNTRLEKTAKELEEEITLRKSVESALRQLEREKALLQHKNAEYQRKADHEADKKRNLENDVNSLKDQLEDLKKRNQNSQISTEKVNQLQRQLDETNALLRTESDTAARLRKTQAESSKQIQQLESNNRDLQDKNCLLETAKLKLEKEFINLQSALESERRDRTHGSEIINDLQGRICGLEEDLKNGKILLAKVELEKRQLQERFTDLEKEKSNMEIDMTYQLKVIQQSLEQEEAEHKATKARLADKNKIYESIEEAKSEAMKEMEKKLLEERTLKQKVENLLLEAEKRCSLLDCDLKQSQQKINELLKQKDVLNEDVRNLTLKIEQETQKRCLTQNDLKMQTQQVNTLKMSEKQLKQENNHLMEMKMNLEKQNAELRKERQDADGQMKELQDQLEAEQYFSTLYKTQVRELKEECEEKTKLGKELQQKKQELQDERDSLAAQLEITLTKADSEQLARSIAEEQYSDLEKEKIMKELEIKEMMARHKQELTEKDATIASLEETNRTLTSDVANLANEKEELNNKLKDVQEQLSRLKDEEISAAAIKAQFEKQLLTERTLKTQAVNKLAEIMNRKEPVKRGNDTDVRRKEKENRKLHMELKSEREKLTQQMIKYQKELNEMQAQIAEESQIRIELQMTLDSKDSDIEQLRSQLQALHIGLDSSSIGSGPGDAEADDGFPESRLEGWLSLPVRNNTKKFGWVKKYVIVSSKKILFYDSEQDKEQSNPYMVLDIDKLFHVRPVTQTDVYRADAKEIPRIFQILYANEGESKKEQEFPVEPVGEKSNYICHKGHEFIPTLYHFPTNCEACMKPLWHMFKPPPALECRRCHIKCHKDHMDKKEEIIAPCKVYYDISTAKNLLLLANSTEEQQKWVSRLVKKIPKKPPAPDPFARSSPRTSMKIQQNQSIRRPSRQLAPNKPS
The target of another test is PIM-1 kinase (Homo sapiens, UniProt P11309). The test is described as follows: HTRF KinEASE kinase assay, PIM-1 inhibitory activity. The source says: Inhibitory activities against PIM-1, TRKA, TRKB, FLT3, PKCδ, PKCε, PKCη, PAK4, PLK1, ROCK2, and IKKβ kinases were all determined using an HTRF®KinEASE™ kinase assay kit based on a time-resolved fluorescence technology. 7-carbonylstaurosporine (7OSTA) and TP-3654 were used as positive controls, and 3 duplicate wells were set in parallel. Specific operation steps are as follows. • (1) A kinase buffer was formulated and then used to formulate compounds to be tested, a positive drug, a substrate, kinases, and adenosine triphosphate (ATP). • (2) 2 μL of the substrate, 2 μL of the kinases (the kinases were not added in a negative control group), 4 μL of the compounds to be tested or the positive drug (4 μL of a buffer was added in a positive control group, and 6 μL of a buffer was added in the negative control group), and 2 μL of the ATP were sequentially added into each well of a 384-well microplate, and the microplate was sealed with a membrane and then centrifuged for uniform mixing. • (3) According to different types of the kinases, incubation was performed in an incubator at 37° C. for a specific time. • (4) A detection solution was formulated using XL-665, an antibody, and a detection buffer, 10 µL of the detection solution was added into each well, the microplate was sealed with a membrane and then centrifuged for uniform mixing, and standing was performed at room temperature for 1 hour. • (5) Fluorescence value intensities F1 and F2 at wavelengths of 620 nm and 665 nm were measured using a multifunctional microplate tester, respectively. A signal ratio was calculated as F2/F1×10000, and then an IC50 value was calculated using Graphpad Prism 8 software.
Chain of PIM-1 kinase (P11309 whole entry): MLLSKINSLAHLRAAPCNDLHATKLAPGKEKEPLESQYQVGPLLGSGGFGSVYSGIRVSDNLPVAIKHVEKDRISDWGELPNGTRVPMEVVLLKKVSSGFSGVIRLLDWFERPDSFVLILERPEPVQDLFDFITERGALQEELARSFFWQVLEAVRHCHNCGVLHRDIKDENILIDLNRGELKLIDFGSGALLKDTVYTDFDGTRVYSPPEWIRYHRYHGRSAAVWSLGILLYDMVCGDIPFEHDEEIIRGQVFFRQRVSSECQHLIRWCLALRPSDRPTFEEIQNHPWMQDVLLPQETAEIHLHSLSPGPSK

The target in a further test is PKCδ (Homo sapiens, UniProt Q05655). The test is described as follows: HTRF KinEASE kinase assay, PKCδ (kinase selectivity). The conditions noted are these: HTRF KinEASE kit, 3 duplicate wells; read-out: PKCδ IC50. On the procedure:
as §1

Chain of PKCδ (Q05655 whole entry): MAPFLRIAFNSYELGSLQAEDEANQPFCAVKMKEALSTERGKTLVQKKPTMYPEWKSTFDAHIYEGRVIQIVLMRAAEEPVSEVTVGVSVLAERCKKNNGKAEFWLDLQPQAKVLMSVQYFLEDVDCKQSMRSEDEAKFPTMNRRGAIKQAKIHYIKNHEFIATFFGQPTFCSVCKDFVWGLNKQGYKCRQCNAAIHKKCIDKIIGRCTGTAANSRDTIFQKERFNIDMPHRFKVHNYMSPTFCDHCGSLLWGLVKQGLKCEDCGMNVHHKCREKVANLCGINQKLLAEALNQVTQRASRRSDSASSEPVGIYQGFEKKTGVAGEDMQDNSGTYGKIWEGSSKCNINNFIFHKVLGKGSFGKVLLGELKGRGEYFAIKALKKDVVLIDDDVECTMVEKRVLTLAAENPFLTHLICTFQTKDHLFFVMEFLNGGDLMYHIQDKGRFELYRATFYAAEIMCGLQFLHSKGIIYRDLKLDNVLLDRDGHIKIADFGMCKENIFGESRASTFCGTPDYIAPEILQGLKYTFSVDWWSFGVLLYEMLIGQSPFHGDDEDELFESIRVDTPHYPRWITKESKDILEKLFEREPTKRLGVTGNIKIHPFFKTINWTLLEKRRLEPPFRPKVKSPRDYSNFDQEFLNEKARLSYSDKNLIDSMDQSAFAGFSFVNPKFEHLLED
Chain of PKCη (P24723 whole entry): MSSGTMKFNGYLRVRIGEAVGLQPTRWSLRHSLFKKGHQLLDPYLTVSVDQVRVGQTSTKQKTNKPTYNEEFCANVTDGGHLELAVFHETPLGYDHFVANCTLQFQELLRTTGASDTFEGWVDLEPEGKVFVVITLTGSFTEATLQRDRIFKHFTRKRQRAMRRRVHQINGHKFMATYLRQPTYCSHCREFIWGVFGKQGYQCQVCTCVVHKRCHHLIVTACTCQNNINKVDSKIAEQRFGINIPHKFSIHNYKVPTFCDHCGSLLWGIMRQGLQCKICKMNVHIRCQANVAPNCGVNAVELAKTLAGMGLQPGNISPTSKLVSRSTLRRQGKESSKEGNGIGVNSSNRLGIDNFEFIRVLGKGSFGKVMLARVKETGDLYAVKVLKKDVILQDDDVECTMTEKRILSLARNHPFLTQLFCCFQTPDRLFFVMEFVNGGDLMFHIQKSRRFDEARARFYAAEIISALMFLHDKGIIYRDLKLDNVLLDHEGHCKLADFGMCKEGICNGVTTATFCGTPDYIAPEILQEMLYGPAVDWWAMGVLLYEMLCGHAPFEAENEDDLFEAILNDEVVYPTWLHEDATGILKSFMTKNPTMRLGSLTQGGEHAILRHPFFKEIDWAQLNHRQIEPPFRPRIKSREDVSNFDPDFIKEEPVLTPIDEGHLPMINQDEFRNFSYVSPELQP

One may read the IC50 as the concentration that gives 50% inhibition. Consider `CO[C@@H]1[C@H](N(C)C(=O)CCC(=O)NO)C[C@H]2O[C@]1(C)n1c3ccccc3c3c4c(c5c6ccccc6n2c5c31)C(=O)NC4=O` [Compound 17], for which the IC50 at IKKβ is above 1000 nM; on PKCη, 73.2 nM; at FLT3, 5.3 nM; at ROCK2 it was 562 nM; at PIM-1 kinase (HTRF KinEASE kit, 3 duplicate wells, read-out: PIM-1 kinase inhibitory activity (IC50)) it was 5.9 nM; at PKCδ it was 10.4 nM. In addition, the “selectivity for the PIM-1 kinase (in words)” value at PIM-1 kinase (versus TRKA, TRKB, FLT3, PKCδ, PKCε, PKCη, PAK4, PLK1, ROCK2, IKKβ) is listed as “excellent selective inhibitory effect on the PIM-1 kinase; also recorded: excellent selective inhibition ability against the PIM-1 kinase”.
